Results as given in patent US20230124862A1, “BISMUTH THIOL COMPOUNDS AND COMPOSITIONS AND METHODS OF TREATING MICROBIAL CO-INFECTIONS” (Microbion Corporation, priority 2020, published 2023).
Converted amounts (≈) assume the structure as drawn. Where two headings read alike, the source gives them in different places. Marks after values point to notes of the source that are not given here.

How the values were obtained:
[1] = test system: Burkholderia cepacia complex; assay: Checkerboard FIC/FICI assay; format: cell-based, Burkholderia spp.; conditions: during FIC testing
[2] = test system: Burkholderia cepacia complex; format: cell-based, Burkholderia spp.; conditions: initial MIC testing
[3] = test system: P. aeruginosa; assay: Broth microdilution MIC (Example 10); format: cell-based, Pseudomonas aeruginosa; conditions: initial MIC testing
[4] = test system: Candida krusei; assay: Antifungal broth microdilution (Example 13); format: cell-based; conditions: 50% inhibition
[5] = test system: Aspergillus spp.; assay: Antifungal broth microdilution (Example 13); format: cell-based, A. niger, A. terreus, A. fumigatus, A. flavus; conditions: minimum effective concentration
[6] = test system: Candida glabrata; assay: Antifungal broth microdilution (Example 13); format: cell-based; conditions: 50% inhibition
[7] = test system: Candida auris; assay: Antifungal broth microdilution (Example 13); format: cell-based; conditions: 50% inhibition
[8] = test system: vancomycin-intermediate Staphylococcus aureus (VISA); assay: Broth microdilution MIC (Example 12); format: cell-based; conditions: Staphylococcus aureus, VISA, VISA isolates; read-out: MIC values

C[C@H]1[C@H](NC(=O)/C(=N\OC(C)(C)C(=O)O)c2csc(N)n2)C(=O)N1S(=O)(=O)O [AZT]
MIC ([1]; B. cenocepacia isolate 0548): 64 mg/L
MIC ([1]; B. cepacia isolate 1793): 128 mg/L
MIC ([1]; B. multivorans isolate 1795): 16 mg/L

CC[C@H](C)C[C@H](C)CCCCCCCCC(=O)N[C@H]1C[C@@H](O)[C@@H](NCCN)NC(=O)[C@@H]2[C@@H](O)CCN2C(=O)[C@H]([C@H](O)CCN)NC(=O)[C@H]([C@H](O)[C@@H](O)c2ccc(O)cc2)NC(=O)[C@@H]2C[C@@H](O)CN2C(=O)[C@H]([C@@H](C)O)NC1=O [CASP]
MIC2 ([4]; C. krusei ATCC 6258, MICA-I): 0.25 µg/mL
MIC2 ([4]; C. krusei ATCC 14243, Susceptible): 0.012 µg/mL
MIC2 ([4]; C. krusei ATCC 96685, Susceptible): 0.12 µg/mL
MIC2 ([4]; C. krusei MMX 7125, Susceptible): 0.25 µg/mL
MIC2 ([4]; C. krusei MMX 7128, Susceptible): 0.25 µg/mL
MIC2 ([4]; C. krusei MMX 7141, Susceptible): 0.25 µg/mL
MIC2 ([4]; C. krusei MMX 7153, MICA-R): 0.25 µg/mL
MIC2 ([4]; C. krusei MMX 7155, Susceptible): 0.25 µg/mL
MIC2 ([4]; C. krusei MMX 7563, Susceptible): 0.12 µg/mL
MIC2 ([4]; C. krusei MMX 9878, MICA-I, VORI-I): 0.25 µg/mL
MEC ([5]; A. flavus ATCC 22546): 0.06 µg/mL
MEC ([5]; A. flavus ATCC 204304): 0.06 µg/mL
MEC ([5]; A. flavus MMX 7935): 0.03 µg/mL
MEC ([5]; A. fumigatus ATCC 204305): 0.25 µg/mL
MEC ([5]; A. fumigatus ATCC MYA-3626): 0.06 µg/mL
MEC ([5]; A. fumigatus MMX 5934): 0.12 µg/mL
MEC ([5]; A. fumigatus MMX 5938, 48 hr only, insufficient growth for 24 hr read): 0.12^b μg/mL
MEC ([5]; A. fumigatus MMX 5939): 0.12 µg/mL
MEC ([5]; A. niger ATCC 29508, 48 hr only, insufficient growth for 24 hr read): 0.06^b μg/mL
MEC ([5]; A. terreus MMX 8229, 48 hr only, insufficient growth for 24 hr read): 0.12^b μg/mL
MIC2 ([6]; C. glabrata ATCC 90030, Susceptible): 0.12 µg/mL
MIC2 ([6]; C. glabrata ATCC MYA-2950, Susceptible): 0.12 µg/mL
MIC2 ([6]; C. glabrata MMX 7087, Susceptible): 0.12 µg/mL
MIC2 ([6]; C. glabrata MMX 7093, FLU-R): 0.12 µg/mL
MIC2 ([6]; C. glabrata MMX 7101, FLU-R): 0.12 µg/mL
MIC2 ([6]; C. glabrata MMX 7103, CASP-R, MICA-R): >8 µg/mL
MIC2 ([6]; C. glabrata MMX 7111, Susceptible): 0.12 µg/mL
MIC2 ([6]; C. glabrata MMX 7285, CASP-R, MICA-R): 0.5 µg/mL
MIC2 ([6]; C. glabrata MMX 7307, CASP-R, MICA-R, FLU-R): >8 µg/mL
MIC2 ([6]; C. glabrata MMX 7549, Susceptible): 0.06 µg/mL
MIC2 ([7]; C. auris MMX 9862, Susceptible): 0.12 µg/mL
MIC2 ([7]; C. auris MMX 9863, FLU-R, VORI-R): 0.12^b μg/mL
MIC2 ([7]; C. auris MMX 9864, FLU-R, VORI-R): 0.25^b μg/mL
MIC2 ([7]; C. auris MMX 9865, FLU-R, VORI-R): 0.25^b μg/mL
MIC2 ([7]; C. auris MMX 9866, FLU-R, VORI-R): 0.12^b μg/mL
MIC2 ([7]; C. auris MMX 9867, FLU-R, VORI-R): 0.12 µg/mL
MIC2 ([7]; C. auris MMX 9868, FLU-R, VORI-R): 0.25 µg/mL
MIC2 ([7]; C. auris MMX 9869, FLU-R, VORI-R): 0.25 µg/mL
MIC2 ([7]; C. auris MMX 9870, FLU-R, VORI-R): 0.25 µg/mL
MIC2 ([7]; C. auris MMX 9871, Susceptible): 0.25^b μg/mL

CC(=O)NC[C@H]1CN(c2ccc(N3CCOCC3)c(F)c2)C(=O)O1 [linezolid, reference compound]
MIC [8]: < 4 mg/L
